Each block holds one compound with its values, some of them ahead of it.
Experiments:
mice = test: forced swimming test; assay type: in vivo; set-up: dose or concentration left out as unconfirmed; settings: forced swimming test in mice
cancer cells = test: cytotoxic action on cancer cells via apoptosis; assay type: cell-based; settings: depending on the cell line used
σ-2 receptors [1] = target: T1, σ-2 receptors (Homo sapiens, UniProt Q5BJF2); test: agonistic action for σ-2
[2] = test system: scopolamine and dizocilpine (MK-801) induced amnesia or amyloid peptide β25-35 (Aβ25-35); test: anti-amnesic action against scopolamine, dizocilpine (MK-801) or Aβ25-35 induced amnesia; assay type: in vivo; settings: per os (po), in mice
σ-2 receptors [3] = target: T1, σ-2 receptors; test: affinity for σ-2 receptors; assay type: binding
[4] = test system: anoxia that is caused by pentylenetetrazole (PTZ); test: protection against pentylenetetrazole (PTZ) induced anoxia and tonic crises; assay type: in vivo, mice
[5] = test system: Aβ25-35 induced neutotoxicity and oxidative stress; test: Aβ25-35 induced neurotoxicity and oxidative stress; assay type: in vivo; settings: 0.03-1 mg/kg, i.p
σ-1 receptors = σ-1 receptors (Homo sapiens, UniProt Q99720); test: agonistic or antagonistic action on σ-1 receptors
σ-1 receptors, sequence (Q99720 whole entry): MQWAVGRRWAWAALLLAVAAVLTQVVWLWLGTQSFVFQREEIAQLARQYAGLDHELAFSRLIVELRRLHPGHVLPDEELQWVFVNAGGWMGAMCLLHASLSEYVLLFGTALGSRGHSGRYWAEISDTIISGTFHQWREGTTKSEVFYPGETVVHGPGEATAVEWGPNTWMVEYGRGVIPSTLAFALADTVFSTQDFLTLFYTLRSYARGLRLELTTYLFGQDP

T1 sequence (Q5BJF2 whole entry): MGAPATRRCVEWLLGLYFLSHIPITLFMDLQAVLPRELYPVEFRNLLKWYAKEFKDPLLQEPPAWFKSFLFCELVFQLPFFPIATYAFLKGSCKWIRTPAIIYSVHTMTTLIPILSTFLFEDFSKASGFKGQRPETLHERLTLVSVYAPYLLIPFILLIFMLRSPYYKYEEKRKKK

Structure (SMILES): CNCC1CCOC1(c1ccccc1)c1ccccc1 (stereo not drawn) [AE37 Met, tetrahydro-N-methyl-2,2-diphenyl-3-furanomethanamine]
protection against anoxia caused by pentylenetetrazole (PTZ) ([4]; in mice): exceptional protection
activity relative to AE37 for the properties mentioned ([4]; mainly neuroprotective action): slightly more active than AE37

Structure (SMILES): CN(C)CC1COC2(C1)C1CC3CC(C1)CC2C3 (stereo not drawn) [AdAE, (DIHYDRO-4-(DIMETHYLAMINOMETHYL)SPIRO{FURANE-2(3H), 2′TRICYCLO[3.3.1.13,7]DECANE}]
action on σ-1 receptors (σ-1 receptors): weak agonists

Structure (SMILES): CN(C)CC1COC(c2ccccc2)(C23CC4CC(CC(C4)C2)C3)C1 (stereo not drawn) [AdPhAE, 5-(TRICYCLO[3.3.1.13,7]DEC-1-YL)-TETRAHYDRO-N,N-DIMETHYL-5-PHENYL-3-FURANEMETHANAMINE-]
action on σ-1 receptors (σ-1 receptors): weak agonists

The next lines start with results.

concentration at which agonistic action for σ-2 is shown (σ-2 receptors [1]): over 10 μM
Ki (σ-2 receptors [3]): > 10 µM
affinity for σ-2 receptors, times lower than for σ-1 (σ-2 receptors [3]; σ-2 versus σ-1): more than 100 times
Structure (SMILES): CN(C)CC1COC(c2ccccc2)(c2ccccc2)C1 (stereo not drawn) [AE14, Tetrahydro-N,N,-dimethyl-5,5-diphenyl-3-furanomethanamine]
anti-immobility action (mice): very strong anti-immobility action
concentration at which cytotoxic action on cancer cells is shown (cancer cells): over 200 μM
anti-amnesic action, active doses from [2]: ≥ 0.03 mg/kg

affinity for σ-2 receptors (σ-2 receptors [3]): no affinity
Structure (SMILES): CN(C)CC1CCOC1(c1ccccc1)c1ccccc1 (stereo not drawn) [AE37, tetrahydro-N,N-dimethyl-2,2-diphenyl-3-furanomethanamine]
activity against Aβ25-35 induced neurotoxicity and oxidative stress [5]: very performant
